Laboratory results as given in patent US20260167656A1, “PHOSPHORAMIDATE COMPOUNDS AND USES THEREOF” (ALLORION THERAPEUTICS INC, priority 2022, published 2026).

Assays:
[1] = system: non-small cell lung cancer cell line H460; assay: H460 proliferation assay in the presence of 3 uM ASP9521 (AKR1C3 specific inhibitor); type: cell-based, human; details: H460 cells, CellTiter-Glo, 72 hours, in the presence of 3 uM ASP9521 added 4 hours prior to compounds; read-out: CTG H460: Avg IC50 (nM) [Assay Condition: ASP9521]
Outline: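 AKR1C3 blocked with 3 uM ASP9521 given 4 h ahead of test compounds. H460 cells, plated 24 h earlier, were then treated for 72 h at 37 °C in 5% CO2. CellTiter-Glo luminescence gave viability.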

[2] = system: non-small cell lung cancer cell line H460; assay: In vitro human cancer cell line cytotoxicity (proliferation) assay in H460, CellTiter-Glo, 72 hours; type: cell-based; details: H460 cells, DMSO condition (no AKR1C3 inhibitor), read-out: CTG H460: Avg IC50 (nM) [Assay Condition: DMSO]
Outline: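 IC50s in nM come from CellTiter-Glo viability read after 72 h of compound exposure. Compounds went in from 10 mM DMSO stocks onto H460 cells, which had been plated at 3×10^3 per well and grown 24 h beforehand at 37 °C, 5% CO2.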

| Structure (SMILES) | IC50 [1] | IC50 [2] | IC50 ([2]; Homo sapiens, NCI-H460, 72 h) |
| --- | --- | --- | --- |
| O=[N+]([O-])c1ccc2c(c1Oc1cccc(OC3CCCC3)c1)CC[C@@H]2OP(=O)(N1CC1)N1CC1 [Example 469] | 1130 nM | < 10 nM |  |
| O=[N+]([O-])c1ccc2c(c1Oc1cccc(OC3CCCC3)c1)CC[C@H]2OP(=O)(N1CC1)N1CC1 [Example 470] | 1150 nM | < 10 nM |  |
| O=[N+]([O-])c1ccc2c(c1Oc1cncc(OC3CC3)c1)CC[C@@H]2OP(=O)(N1CC1)N1CC1 [Example 471] | 3060 nM | < 10 nM |  |
| CSc1cccc(Oc2c([N+](=O)[O-])ccc3c2CC[C@H]3OP(=O)(N2CC2)N2CC2)c1 [Example 472] | 583 nM | < 10 nM |  |
| O=[N+]([O-])c1ccc2c(c1Oc1cccc(OCC(F)(F)F)c1)CC[C@@H]2OP(=O)(N1CC1)N1CC1 [Example 474] | 918 nM | < 10 nM |  |
| O=[N+]([O-])c1ccc2c(c1Oc1ccc(F)c(OC3CCCC3)c1)CCC2OP(=O)(N1CC1)N1CC1 (centres unmarked) [Example 476] | 1090 nM | < 10 nM |  |
| O=[N+]([O-])c1ccc2c(c1Oc1ccc(F)c(OC(F)F)c1)CCC2OP(=O)(N1CC1)N1CC1 (centres unmarked) [Example 477] | 627 nM | < 10 nM |  |
| O=[N+]([O-])c1ccc2c(c1Oc1ccc(F)c(OC3CCCC3)c1)CCC2OP(=O)(N1CC1)N1CC1 (centres unmarked) [Example 478] | 1690 nM | < 10 nM |  |
| O=[N+]([O-])c1ccc2c(c1Oc1ccc(F)c(OC3CCCC3)c1)CCC2OP(=O)(N1CC1)N1CC1 (centres unmarked) [Example 479] | 1630 nM | < 10 nM |  |
| O=[N+]([O-])c1ccc2c(c1Oc1cccc(OCC3CC3)c1)CCC2OP(=O)(N1CC1)N1CC1 (centres unmarked) [Example 480] | 1760 nM | < 10 nM |  |
| O=[N+]([O-])c1ccc2c(c1Oc1cccc(OCC3CC3)c1)CC[C@@H]2OP(=O)(N1CC1)N1CC1 [Example 481] | 1120 nM |  | < 10 nM |
| O=[N+]([O-])c1ccc2c(c1Oc1cccc(OCC3CC3)c1)CCC2OP(=O)(N1CC1)N1CC1 (centres unmarked) [Example 482] | 1340 nM | < 10 nM |  |
| COc1ccc(Oc2c([N+](=O)[O-])ccc3c2CCC3OP(=O)(N2CC2)N2CC2)cc1OC1CC1 (centres unmarked) [Example 483] | 735 nM | < 10 nM |  |
| CC(C)COc1cccc(Oc2c([N+](=O)[O-])ccc3c2CCC3OP(=O)(N2CC2)N2CC2)c1 (centres unmarked) [Example 484] | 1990 nM | < 10 nM |  |
| CC(C)COc1cccc(Oc2c([N+](=O)[O-])ccc3c2CCC3OP(=O)(N2CC2)N2CC2)c1 (centres unmarked) [Example 485] | 1150 nM | < 10 nM |  |
| CC(C)Oc1cc(Oc2c([N+](=O)[O-])ccc3c2CCC3OP(=O)(N2CC2)N2CC2)ccc1F (centres unmarked) [Example 486] | 967 nM | < 10 nM |  |
| CC(C)Oc1cc(Oc2c([N+](=O)[O-])ccc3c2CCC3OP(=O)(N2CC2)N2CC2)ccc1F (centres unmarked) [Example 487] | 1010 nM | < 10 nM |  |
| O=[N+]([O-])c1ccc2c(c1Oc1ccc(F)c(OCC3CC3)c1)CC[C@H]2OP(=O)(N1CC1)N1CC1 [Example 488] | 857 nM |  | < 10 nM |
| O=[N+]([O-])c1ccc2c(c1Oc1ccc(F)c(OCC3CC3)c1)CC[C@@H]2OP(=O)(N1CC1)N1CC1 [Example 489] | 1660 nM |  | < 10 nM |
| O=[N+]([O-])c1ccc2c(c1Oc1ccc(OC3CCCC3)cc1)CCC2OP(=O)(N1CC1)N1CC1 (centres unmarked) [Example 490] | 788 nM | < 10 nM |  |
| O=[N+]([O-])c1ccc2c(c1Oc1ccc(OC3CCCC3)cc1)CCC2OP(=O)(N1CC1)N1CC1 (centres unmarked) [Example 491] | 1940 nM | < 10 nM |  |
| O=[N+]([O-])c1ccc2c(c1Oc1ccc(OC3COC3)cc1)CC[C@H]2OP(=O)(N1CC1)N1CC1 [Example 492] | 778 nM |  | < 10 nM |

| Structure (SMILES) | IC50 [1] | IC50 [2] | IC50 ([2]; Homo sapiens, NCI-H460, 72 h) |
| --- | --- | --- | --- |
| CCOc1cc(Oc2c([N+](=O)[O-])ccc3c2CC[C@@H]3OP(=O)(N2CC2)N2CC2)ccc1F [Example 493] | 341 nM |  | < 10 nM |
| O=[N+]([O-])c1ccc2c(c1Oc1ccc(F)c(OCC(F)(F)F)c1)CC[C@@H]2OP(=O)(N1CC1)N1CC1 [Example 494] | 160 nM |  | < 10 nM |
| O=[N+]([O-])c1ccc2c(c1Oc1ccc(F)c(OC3CCOCC3)c1)CC[C@@H]2OP(=O)(N1CC1)N1CC1 [Example 495] | 635 nM |  | < 10 nM |
| O=[N+]([O-])c1ccc2c(c1Oc1ccc(F)c(OC3CCOCC3)c1)CC[C@H]2OP(=O)(N1CC1)N1CC1 [Example 496] | 783 nM |  | < 10 nM |
| Cn1cc(Oc2cc(Oc3c([N+](=O)[O-])ccc4c3CC[C@@H]4OP(=O)(N3CC3)N3CC3)ccc2F)cn1 [Example 497] | 1010 nM |  | < 10 nM |
| CC(C)COc1cc(Oc2c([N+](=O)[O-])ccc3c2CC[C@@H]3OP(=O)(N2CC2)N2CC2)ccc1F [Example 498] | 899 nM |  | < 10 nM |
| CC(C)COc1cc(Oc2c([N+](=O)[O-])ccc3c2CC[C@H]3OP(=O)(N2CC2)N2CC2)ccc1F [Example 499] | 918 nM |  | < 10 nM |
| Cc1ncn(-c2cccc(Oc3c([N+](=O)[O-])ccc4c3CC[C@@H]4OP(=O)(N3CC3)N3CC3)c2)n1 [Example 500] | 1300 nM |  | < 10 nM |
| COc1cc(OCC2CC2)cc(Oc2c([N+](=O)[O-])ccc3c2CC[C@@H]3OP(=O)(N2CC2)N2CC2)c1 [Example 501] | 1080 nM |  | < 10 nM |
| COc1ccc(Oc2c([N+](=O)[O-])ccc3c2CC[C@@H]3OP(=O)(N2CC2)N2CC2)cc1OCC1CC1 [Example 502] | 546 nM |  | < 10 nM |
| O=[N+]([O-])c1ccc2c(c1Oc1cc(F)cc(OCC3CC3)c1)CC[C@@H]2OP(=O)(N1CC1)N1CC1 [Example 503] | 1660 nM |  | < 10 nM |
| CS(=O)(=O)c1ccc(Oc2c([N+](=O)[O-])ccc3c2CCC3OP(=O)(N2CC2)N2CC2)cc1 (centres unmarked) [Example 504] | 288 nM | < 10 nM |  |
| CSc1ccc(Oc2c([N+](=O)[O-])ccc3c2CCC3OP(=O)(N2CC2)N2CC2)cc1 (centres unmarked) [Example 505] | 327 nM | < 10 nM |  |
| CS(=O)(=O)c1ccc(Oc2c([N+](=O)[O-])ccc3c2CCC3OP(=O)(N2CC2)N2CC2)cc1 (centres unmarked) [Example 506] | 625 nM | < 10 nM |  |
| CSc1cc(Oc2c([N+](=O)[O-])ccc3c2CCC3OP(=O)(N2CC2)N2CC2)ccc1F (centres unmarked) [Example 507] | 952 nM | < 10 nM |  |
| CS(=O)(=O)c1cc(Oc2c([N+](=O)[O-])ccc3c2CCC3OP(=O)(N2CC2)N2CC2)ccc1F (centres unmarked) [Example 508] | 519 nM | < 10 nM |  |
| Cn1cc(Oc2c([N+](=O)[O-])ccc3c2CCC3OP(=O)(N2CC2)N2CC2)ccc1=O (centres unmarked) [Example 509] | 844 nM | < 10 nM |  |
| O=[N+]([O-])c1ccc2c(c1Oc1ccc(F)c(Br)c1)CCC2OP(=O)(N1CC1)N1CC1 (centres unmarked) [Example 510] | 535 nM | < 10 nM |  |
| O=c1ccc(Oc2c([N+](=O)[O-])ccc3c2CCC3OP(=O)(N2CC2)N2CC2)cn1C1CC1 (centres unmarked) [Example 511] | 429 nM | < 10 nM |  |
| O=[N+]([O-])c1ccc2c(c1Oc1ccc(S(=O)(=O)C3CC3)cc1)CC[C@@H]2OP(=O)(N1CC1)N1CC1 [Example 512] | 83.3 nM |  | < 10 nM |
| O=[N+]([O-])c1ccc2c(c1Oc1ccc(F)c(S(=O)(=O)C3CC3)c1)CC[C@@H]2OP(=O)(N1CC1)N1CC1 [Example 513] | 682 nM |  | < 10 nM |
